21 compounds from ChEMBL document CHEMBL4715887, “Synthesis of novel isoflavone/benzo-δ-sultam hybrids as potential anti-inflammatory drugs” (Bioorg Med Chem Lett, 2021) can be followed below.

Calls of active or inactive are those of the source. The calls are words filed in the database; no cut-off is given here.

Data set [1] has as its system BV-2. Description: Antiinflammatory activity in mouse BV2 cells assessed as reduction in LPS-induced NO-production at 20 uM after 24 hrs by Griess reagent based assay relative to control. Format: functional.
The subject of data set [2] is BV-2. Description: Cytotoxicity against mouse BV2 cells assessed as reduction in cell viability at 20 uM after 24 hrs by XTT assay. Format: cell-based. The following applies: bv-2, 24 h.
The subject of data set [3] is BV-2. In words: Antiinflammatory activity in mouse BV2 cells assessed as LPS-induced NO-production at 20 uM after 24 hrs by Griess reagent based assay relative to control. Format: functional.
A short description of data set [4]: Cytotoxicity against mouse BV2 cells assessed as cell viability at 20 uM after 24 hrs by XTT assay relative to control. Format: cell-based, BV-2. The following applies: read-out: Activity.
Data set [5] concerns BV-2. Description: Antiinflammatory activity in mouse BV2 cells assessed as LPS-induced TNFalpha-production at 20 uM after 24 hrs by Griess reagent based assay relative to control. The format is functional.

On to `COc1ccc(CNS(=O)(=O)c2ccccc2C#Cc2coc3cc(OC)ccc3c2=O)cc1`, for which the inhibition entry in data set [1] was “Active”.

Consider `COc1ccc2c(=O)c(-c3ccc(NS(=O)(=O)c4ccccc4Br)cc3)coc2c1`, for which the Activity result in data set [2] is reported as “Non-Toxic”; in data set [3], 26%. Further, the inhibition entry in data set [1] was “Active”.

Turning to `COc1ccc(-c2coc3cc(O)cc(O)c3c2=O)cc1` [BIOCHANIN], in data set [4], the viability at 24 h, 20 µM came out at 76%. For the same compound, the results for the Activity entry in data set [2] and in data set [5] were “Non-Toxic” and 33%, respectively. Further, the inhibition at 20 µM in data set [1] stood at 41%.

`COc1ccc2c(=O)c(C#C[Si](C)(C)C)coc2c1`: the Activity entry in data set [2] is reported as “Non-Toxic”; in data set [3], 21%. Further, the inhibition result in data set [1] was “Active”.

Turning to `O=c1c(-c2ccc(O)cc2)coc2cc(O)ccc12` [DAIDZEIN], in data set [4], the viability at 24 h, 20 µM was greater than 80%. Also, in data set [2], the Activity entry is given as “Non-Toxic”. For the same compound, the inhibition at 20 µM in data set [1] was found to be 35%.

Take `COc1ccc2c(=O)c(C3=Cc4ccccc4S(=O)(=O)N3)coc2c1`: the Activity entry in data set [2] is reported as “Toxic”; in data set [3], 24%. Further, the inhibition result in data set [1] is “Active”.

Turning to `CNS(=O)(=O)c1ccccc1Br`, in data set [2], the Activity entry is “Non-Toxic”.

For the compound `CNS(=O)(=O)c1ccccc1I`, in data set [2], the Activity result is recorded as “Non-Toxic”.

Consider `O=S(=O)(Nc1ccccc1)c1ccccc1Br`, for which, in data set [2], the Activity result was “Non-Toxic”.

In the case of `COc1ccc(CN2C(c3coc4cc(OC)ccc4c3=O)=Cc3ccccc3S2(=O)=O)cc1`, the Activity result is given as “Non-Toxic” in data set [2], 41% in data set [3] and 34% in data set [5]. Further, the inhibition result in data set [1] is “Active”.

With `COc1ccc2c(=O)c(I)coc2c1`, the Activity entry in data set [2] is on record as “Non-Toxic”; in data set [3], 21%; in data set [5] it was 26%.

For `C#Cc1coc2cc(OC)ccc2c1=O`, the viability at 24 h, 20 µM in data set [4] worked out at 49%.

With `COc1ccc(CNS(=O)(=O)c2ccccc2I)cc1`, in data set [2], the Activity entry is on record as “Non-Toxic”.

Take `COc1ccc2c(=O)c(C3=Cc4ccccc4S(=O)(=O)N3C)coc2c1`: the Activity result in data set [2] is “Non-Toxic”. Besides, the inhibition result in data set [1] is “Active”.

Consider `COc1ccc2c(=O)c(-c3ccc(N)cc3)coc2c1`, for which the Activity result in data set [2] is recorded as “Non-Toxic”; in data set [3], 42%. Further, the result in data set [5] was Active.

As for `COc1ccc2c(=O)c(C#Cc3ccccc3S(=O)(=O)Nc3ccccc3)coc2c1`, the Activity result in data set [2] was “Toxic”. The inhibition entry in data set [1] is “Active”.

`COc1ccc2c(=O)c(-c3ccc(N4C(c5ccccc5)=Cc5ccccc5S4(=O)=O)cc3)coc2c1`: the Activity entry in data set [2] is “Toxic”. The inhibition result in data set [1] was “Active”.

Consider `COc1ccc2c(=O)c(-c3ccc(NS(=O)(=O)c4ccccc4C#Cc4ccccc4)cc3)coc2c1`, for which the Activity result in data set [2] is listed as “Non-Toxic”. Besides, the inhibition entry in data set [1] was “Active”.

Take `COc1ccc2c(=O)c(C3=Cc4ccccc4S(=O)(=O)N3c3ccccc3)coc2c1`: the Activity entry in data set [2] is “Non-Toxic”. Moreover, the inhibition entry in data set [1] was “Active”.

Turning to `O=S(=O)(Nc1ccccc1)c1ccccc1I`, in data set [2], the Activity result is on record as “Non-Toxic”.

With `COc1ccc2c(=O)c(-c3ccc([N+](=O)[O-])cc3)coc2c1`, in data set [2], the Activity entry is on record as “Non-Toxic”. For the same compound, the inhibition result in data set [1] is “inactive”.
